Measurements published in patent US20260285880A1, “SUBSTITUTED DIHYDROTHIENOPYRIMIDINE COMPOUND, PREPARATION METHOD THEREFOR, AND USE THEREOF” (SHANGHAI YIDI BIOTECHNOLOGY CO., LTD., priority 2023, published 2026).
Like-named read-outs stand apart in the source and are kept apart here.

Molecular target: Flpin-293-PDE4B2 cells (Homo sapiens, UniProt Q07343)
Assay: cell-based
[1] = read-out: Cell Inhibition % @1 nM, 1 nM, Flpin-293-PDE4B2 cells
[2] = read-out: Cell Inhibition % @10 nM, 10 nM, Flpin-293-PDE4B2 cells
[3] = read-out: Cell Inhibition % @100 nM, 100 nM, Flpin-293-PDE4B2 cells

Chain of Flpin-293-PDE4B2 cells (Q07343 1-564 isoform Q07343-2): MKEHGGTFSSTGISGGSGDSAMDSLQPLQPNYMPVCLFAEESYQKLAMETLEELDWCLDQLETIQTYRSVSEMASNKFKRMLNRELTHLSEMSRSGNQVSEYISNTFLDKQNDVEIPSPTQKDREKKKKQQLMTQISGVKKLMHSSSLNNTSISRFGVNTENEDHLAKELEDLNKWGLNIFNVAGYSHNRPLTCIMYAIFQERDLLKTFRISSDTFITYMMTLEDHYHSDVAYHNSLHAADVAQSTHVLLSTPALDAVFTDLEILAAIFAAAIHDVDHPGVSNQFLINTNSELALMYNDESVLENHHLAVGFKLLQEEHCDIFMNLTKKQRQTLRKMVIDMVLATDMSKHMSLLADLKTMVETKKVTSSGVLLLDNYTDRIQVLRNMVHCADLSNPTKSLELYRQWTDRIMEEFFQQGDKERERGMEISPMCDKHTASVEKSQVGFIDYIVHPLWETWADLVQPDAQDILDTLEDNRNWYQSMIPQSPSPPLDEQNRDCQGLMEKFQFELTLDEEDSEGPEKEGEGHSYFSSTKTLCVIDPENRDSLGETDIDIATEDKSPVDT

inhibition at 0.001 µM [1] [%] | inhibition at 0.01 µM [2] [%] | inhibition at 0.1 µM [3] [%] | Structure (SMILES) | inhibition at 0.001 µM (read-out: Cell Inhibition % @1 nM) [%] | inhibition at 0.01 µM (read-out: Cell Inhibition % @10 nM) [%] | inhibition at 0.1 µM (read-out: Cell Inhibition % @100 nM) [%]
4.93 | 24.9 | 51.4 | NC(=O)c1ccc2c(c1)CCN(c1nc3c(c(NC4(CO)CCC4)n1)[S+]([O-])CC3)C2 (stereo not shown) [Compound 75] | – | – | –
-0.82 | 37.4 | 95.1 | [O-][S+]1CCc2nc(N3CC[C@@H]4c5cc(Cl)ccc5OC[C@H]4C3)nc(NC3(CO)CCC3)c21 (stereo partly shown) [Compound 108] | – | – | –
14.8 | 84.1 | 99.9 | C[C@H]1c2ccc(N3CCCC3)cc2CCN1c1nc2c(c(NC3(CO)CC3)n1)[S+]([O-])CC2 (stereo partly shown) [Compound 203] | – | – | –
5.32 | 17.3 | 61.6 | [O-][S+]1CCc2nc(N3CC[C@H]4c5cnc(Cl)cc5OC[C@@H]4C3)nc(NC3(CO)CCC3)c21 (stereo partly shown) [Compound 117] | – | – | –
– | 14 | 62 | [O-][S+]1CCc2nc(N3CCc4ccc(Cl)cc4CC3)nc(NC3(CO)CCC3)c21 (stereo not shown) [Compound 34] | – | – | –
8.53 | 68 | 98.9 | [O-][S+]1CCc2nc(N3CCc4cc(N5C[C@H]6COC[C@H]6C5)ccc4C3)nc(NC3(CO)CCC3)c21 (stereo partly shown) [Compound 178] | – | – | –
1.99 | 11.2 | 59.4 | [O-][S+]1CCc2nc(N3CCc4cnc(Cl)cc4C3)nc(NC3(CO)CCC3)c21 (stereo not shown) [Compound 79] | – | – | –
4.06 | 36.5 | 94.3 | [O-][S+]1CCc2nc(N3CCc4cc(N5CCC(CO)C5)ccc4C3)nc(NC3(CO)CCC3)c21 (stereo not shown) [Compound 171] | – | – | –
17.7 | 65.4 | 97.8 | [O-][S+]1CCc2nc(N3CC[C@@H]4c5ccc(F)cc5OC[C@H]4C3)nc(NC3(CO)CCC3)c21 (stereo partly shown) [Compound 109] | – | – | –
3.77 | 46 | 96.6 | [O-][S+]1CCc2nc(N3CCc4cc(N5CC[C@H](O)C5)ccc4C3)nc(NC3(CO)CCC3)c21 (stereo partly shown) [Compound 172] | – | – | –
2.17 | 16.9 | 73.4 | [O-][S+]1CCc2nc(N3CC[C@H]4c5ccc(Cl)cc5OC[C@H]4C3)nc(NC3(CO)CCC3)c21 (stereo partly shown) [Compound 116] | – | – | –
1.66 | 17.4 | 86.5 | [O-][S+]1CCc2nc(N3CCC4=C(COc5ccccc54)C3)nc(NC3(CO)CCC3)c21 (stereo not shown) [Compound 97] | – | – | –
8.69 | 63.1 | 97.8 | CN1CCN(c2ccc3c(c2)CCN(c2nc4c(c(NC5(CO)CCC5)n2)[S+]([O-])CC4)C3)C1=O (stereo not shown) [Compound 86] | – | – | –
12.3 | 54.1 | 99.4 | Cc1ccc2c(c1)OC[C@H]1CN(c3nc4c(c(NC5(CO)CCC5)n3)[S+]([O-])CC4)CC[C@H]21 (stereo partly shown) [Compound 112] | – | – | –
3.47 | 37.4 | 95.3 | [O-][S+]1CCc2nc(N3CCc4cc(N5CC(F)C5)ccc4C3)nc(NC3(CO)CCC3)c21 (stereo not shown) [Compound 89] | – | – | –
– | 18.8 | 79.2 | [O-][S+]1CCc2nc(N3CCc4cccc(Cl)c4C3)nc(NC3(CO)CCC3)c21 (stereo not shown) [Compound 21] | – | – | –
– | 81.8 | 99.5 | [O-][S+]1CCc2nc(N3CCc4cc(C(F)(F)F)ccc4C3)nc(NC3(CO)CCC3)c21 (stereo not shown) [Compound 52] | – | – | –
– | 11.3 | 48 | Cn1cc2c(n1)CN(c1nc3c(c(NC4(CO)CCC4)n1)[S+]([O-])CC3)CC2 (stereo not shown) [Compound 30] | – | – | –
3.3 | 29.6 | 86.8 | C[C@H]1c2ccc(Br)cc2CCN1c1nc2c(c(NC3(CO)CCC3)n1)[S+]([O-])CC2 (stereo partly shown) [Compound 123] | – | – | –
2.82 | 52.5 | 98.1 | [O-][S+]1CCc2nc(N3CC[C@@H]4c5cccc(Cl)c5OC[C@H]4C3)nc(NC3(CO)CCC3)c21 (stereo partly shown) [Compound 107] | – | – | –
10.7 | 44.4 | 98.9 | C[C@H]1c2ccc(N3CCC(F)(F)C3)cc2CCN1c1nc2c(c(NC3(CO)CCC3)n1)[S+]([O-])CC2 (stereo partly shown) [Compound 224] | – | – | –

The next lines start with the compound.

Structure (SMILES) | inhibition at 0.001 µM [1] [%] | inhibition at 0.01 µM [2] [%] | inhibition at 0.1 µM [3] [%] | inhibition at 0.001 µM (read-out: Cell Inhibition % @1 nM) [%] | inhibition at 0.01 µM (read-out: Cell Inhibition % @10 nM) [%] | inhibition at 0.1 µM (read-out: Cell Inhibition % @100 nM) [%]
C[C@H]1c2ccc(N3CCCC3)cc2CCN1c1nc2c(c(N[C@H]3CCC(=O)N(C)C3)n1)[S+]([O-])CC2 (stereo partly shown) [Compound 202] | 52.5 | 99.4 | 101 | – | – | –
O=C1CCCN1c1ccc2c(c1)CCN(c1nc3c(c(NC4(CO)CCC4)n1)[S+]([O-])CC3)C2 (stereo not shown) [Compound 87] | 2.9 | 31.3 | 89.1 | – | – | –
COC[C@@H](CO)Nc1nc(N2CCc3cc(N4CCCC4)ccc3C2)nc2c1[S+]([O-])CC2 (stereo partly shown) [Compound 199] | -0.51 | 8.04 | 61.6 | – | – | –
[O-][S+]1CCc2nc(N3CCc4nc(Br)sc4C3)nc(NC3(CO)CCC3)c21 (stereo not shown) [Compound 63] | – | 31.1 | 76.6 | – | – | –
COc1nc2c(c3ccc(Cl)cc13)CCN(c1nc3c(c(NC4(CO)CCC4)n1)[S+]([O-])CC3)C2 (stereo not shown) [Compound 99] | 4.18 | 43.7 | 96.5 | – | – | –
[O-][S+]1CCc2nc(N3CCc4cc(-c5ncco5)ccc4C3)nc(NC3(CO)CCC3)c21 (stereo not shown) [Compound 84] | 32.9 | 97 | 101 | – | – | –
C[C@H]1c2ccc(N3CCCC3)cc2CCN1c1nc2c(c(Nc3ncnn3C)n1)[S+]([O-])CC2 (stereo partly shown) [Compound 217] | 2.48 | 25 | 84.5 | – | – | –
[O-][S+]1CCc2nc(N3CCc4cc(N5CCCC5)cc(F)c4C3)nc(NC3(CO)CCC3)c21 (stereo not shown) [Compound 182] | 3.68 | 40.6 | 98 | – | – | –
CC(=O)N1CC[C@H](Nc2nc(N3CCc4cc(N5CCCC5)ccc4[C@@H]3C)nc3c2[S+]([O-])CC3)C1 (stereo partly shown) [Compound 222] | 41.5 | 96.2 | 101 | – | – | –
[O-][S+]1CCc2nc(N3CCc4cc(N5CC(F)(F)C5)ccc4C3)nc(NC3(CO)CCC3)c21 (stereo not shown) [Compound 88] | 3.67 | 28.8 | 93.5 | – | – | –
C[C@H]1c2ccc(N3CCCC3)cc2CCN1c1nc2c(c(NC3CCOCC3)n1)[S+]([O-])CC2 (stereo partly shown) [Compound 205] | 28.5 | 92.4 | 101 | – | – | –
COC[C@H]1CCCN1c1ccc2c(c1)CCN(c1nc3c(c(NC4(CO)CCC4)n1)[S+]([O-])CC3)C2 (stereo partly shown) [Compound 146] | 14.8 | 85.1 | 101 | – | – | –
COC[C@@H]1CCCN1c1ccc2c(c1)CCN(c1nc3c(c(NC4(CO)CCC4)n1)[S+]([O-])CC3)C2 (stereo partly shown) [Compound 147] | 8.67 | 32.2 | 94.4 | – | – | –
Cn1cc(Nc2nc(N3CCc4cc(N5CC6CC6C5)ccc4C3)nc3c2[S+]([O-])CC3)cn1 (stereo not shown) [Compound 223] | 11.3 | 73.7 | 99.2 | – | – | –
[O-][S+]1CCc2nc(N3CCc4c(c(NCCO)nc5cc(Cl)ccc45)C3)nc(NC3(CO)CCC3)c21 (stereo not shown) [Compound 103] | 2.83 | 38.9 | 95.4 | – | – | –
COc1ccc2sc3c(c2c1)CCN(c1nc2c(c(NC4(CO)CCC4)n1)[S+]([O-])CC2)C3 (stereo not shown) [Compound 82] | 19.1 | 77.5 | 99.9 | – | – | –
Cn1cnc(-c2ccc3c(c2)CCN(c2nc4c(c(NC5(CO)CCC5)n2)[S+]([O-])CC4)C3)n1 (stereo not shown) [Compound 94] | 34.8 | 94.1 | 100 | – | – | –
Cn1cc(Nc2nc(N3CCc4cc(Cl)ccc4C3)nc3c2[S+]([O-])CC3)cn1 (stereo not shown) [Compound 141] | 11.4 | 49.2 | 96 | – | – | –
[O-][S+]1CCc2nc(N3CCc4cc(-n5cccn5)ccc4C3)nc(NC3(CO)CCC3)c21 (stereo not shown) [Compound 91] | 19.2 | 86 | 100 | – | – | –
O=C(O)Cc1ccc(Nc2nc(N3CCc4cc(Cl)ccc4C3)nc3c2[S@@+]([O-])CC3)cc1 [Compound 128] | -0.97 | 6.68 | 25.4 | – | – | –
[O-][S+]1CCc2nc(N3CCc4cc(Cl)ncc4C3)nc(NC3(CO)CCC3)c21 (stereo not shown) [Compound 78] | – | – | – | 2.2 | 32.1 | 86.3
C[C@H]1c2ccc(N3CCCC3)cc2CCN1c1nc2c(c(NC3CS(=O)(=O)C3)n1)[S+]([O-])CC2 (stereo partly shown) [Compound 204] | 23.1 | 87.2 | 100 | – | – | –
[O-][S+]1CCc2nc(N3CCc4cc(N5CCCC5)ccc4C3)nc(NC3(CO)CCC3)c21 (stereo not shown) [Compound 92] | 3.35 | 43.7 | 98.2 | – | – | –
Cn1ccc(-c2ccc3c(c2)CCN(c2nc4c(c(NC5(CO)CCC5)n2)[S+]([O-])CC4)C3)n1 (stereo not shown) [Compound 77] | 61 | 99.4 | 101 | – | – | –
[O-][S+]1CCc2nc(N3CCc4cc(-c5cnco5)ccc4C3)nc(NC3(CO)CCC3)c21 (stereo not shown) [Compound 85] | 41.7 | 97 | 101 | – | – | –
[O-][S+]1CCc2nc(N3CCc4c(ncc5cc(Cl)ccc45)C3)nc(NC3(CO)CCC3)c21 (stereo not shown) [Compound 100] | 6 | 47.7 | 97.3 | – | – | –
O=C(O)Cc1ccc(Nc2nc(N3CCc4cc(Cl)ccc4C3)nc3c2[S@+]([O-])CC3)cc1 [Compound 129] | 6.93 | 39.6 | 72.2 | – | – | –
